Assay: recombinant barcode read abundance after kanamycin selection (control-corrected) (log10(CPM+1)); higher = more efficient recombination; sequences stand for … in AGTGCAGAGAAAATCGGCCAGTTTTCTCTGCCTGCAGTCCGCATGCCGT…AGATTTATGCAGCGGACTGCCTTTCTCCCAAAGTGATAAACCGGACAGTATCATGGACCGGTTTTCCCGGTAATCCGTATTTGCAAGGTTGGTTTCACT; site = the 11-nt target
Summary of the method: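 Reported as log10(CPM+1), each value stands for recombination efficiency. That efficiency is the averaged, control-corrected counts per million of barcodes found at recombinant junctions. Cells from a pooled E. coli library pairing targets with IS621 bridge RNA target-binding loops were plated twice on chloramphenicol/ampicillin LB agar (control) and twice on chloramphenicol/ampicillin/kanamycin with 0.1 mM IPTG.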
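Note: IS621 recombinase and bridge RNA in Escherichia coli cells.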

Going from “GCGCGGCCTTGGGTTCTAACCTGTTGCTT (site GCGCGGCCTAA)” to “GCGCTAACTTGGGTTCTAACCTGTTGCCT (site GCGCTAACTAG)”, the “recombinant barcode read abundance (log10)” value rises from 0.492 to 1.05.

Going from “GCGCTAACTTGGGTTCTAACCTGTTGCCT (site TCGCTAACTAG)” to “GCGCTCCCTTGGGTTCTAACCTGTTGCCT (site GCACTCCCTAG)”, the “recombinant barcode read abundance (log10)” value rises from 0.169 to 1.25.

Compared with “GCGCTCCCTTGGGTTCTAACCTGTTGCCT (site GCCCTCCCTAG)”, “GCGCTCCCTTGGGTTCTAACCTGTTGCCT (site GCGCTCCCTAG)” is higher in “recombinant barcode read abundance (log10)” value: 0.388 for the first, 0.926 for the second.

First: GCGCTCCCTTGGGTTCTAACCTGTTGCCT (site GCTCTCCCTAG)
Second: GCGGACTCTTGGGTTCTAACCTGTTGCCA (site GCGGACTCTTG)
The “recombinant barcode read abundance (log10)” value of the first is lower: 0.145 for the first, 2.09 for the second.

First: GCGGACTCTTGGGTTCTAACCTGTTGCCA (site GCGTACTCTAG)
Second: GCGGAGTCTTGGGTTCTAACCTGTTGCGT (site GCGGAGTCTAC)
The “recombinant barcode read abundance (log10)” value of the first is lower: 0.0401 for the first, 1.45 for the second.

Compared with “GCGGAGTCTTGGGTTCTAACCTGTTGCGT (site GCTAAGTCTAC)”, “GCGGATCCTTGGGTTCTAACCTGTTGCCT (site GCGAATCCTAG)” is higher in “recombinant barcode read abundance (log10)” value: 0.0484 for the first, 0.824 for the second.

Going from “GCGGATCCTTGGGTTCTAACCTGTTGCCT (site GCGCATCCTAG)” to “GCGGATCCTTGGGTTCTAACCTGTTGCCT (site GCGGATCCTAG)”, the “recombinant barcode read abundance (log10)” value rises from 0.0111 to 2.11.

Going from “GCGGATCCTTGGGTTCTAACCTGTTGCCT (site GCGTATCCTAG)” to “GCGGCGACTTGGGTTCTAACCTGTTGCCT (site GCAGCGACTAG)”, the “recombinant barcode read abundance (log10)” value falls from 1.05 to 0.291.

Compared with “GCGGCGACTTGGGTTCTAACCTGTTGCCT (site GCCGCGACTAG)”, “GCGGCGACTTGGGTTCTAACCTGTTGCCT (site GCGGCGACTAG)” is higher in “recombinant barcode read abundance (log10)” value: 0.162 for the first, 0.891 for the second.

Compared with “GCGGCGACTTGGGTTCTAACCTGTTGCCT (site GCTGCGACTAG)”, “GCGGGATCTTGGGTTCTAACCTGTTGCCT (site ACGGGATCTAG)” is higher in “recombinant barcode read abundance (log10)” value: 0.0436 for the first, 0.765 for the second.

Going from “GCGGGATCTTGGGTTCTAACCTGTTGCCT (site CCGGGATCTAG)” to “GCGGGATCTTGGGTTCTAACCTGTTGCCT (site GCGGGATCTAG)”, the “recombinant barcode read abundance (log10)” value rises from 0.258 to 1.06.

First: GCGGGATCTTGGGTTCTAACCTGTTGCCT (site TCGGGATCTAG)
Second: GCGGGGTCTTGGGTTCTAACCTGTTGCTT (site GCAGGGTCTAA)
The “recombinant barcode read abundance (log10)” value of the first is lower: 0.174 for the first, 2.65 for the second.

First: GCGGGGTCTTGGGTTCTAACCTGTTGCTT (site GCCGGGTCTAA)
Second: GCGGGGTCTTGGGTTCTAACCTGTTGCTT (site GCGGGGTCTAA)
The “recombinant barcode read abundance (log10)” value of the first is lower: 0.124 for the first, 2.2 for the second.

Going from “GCGGGGTCTTGGGTTCTAACCTGTTGCTT (site GCTGGGTCTAA)” to “GCGGGTCCTTGGGTTCTAACCTGTTGCCT (site GCAGGTCCTAG)”, the “recombinant barcode read abundance (log10)” value rises from 0.783 to 2.24.

Compared with “GCGGGTCCTTGGGTTCTAACCTGTTGCCT (site GCCGGTCCTAG)”, “GCGGGTCCTTGGGTTCTAACCTGTTGCCT (site GCGGGTCCTAG)” is higher in “recombinant barcode read abundance (log10)” value: 0.213 for the first, 2.15 for the second.

Going from “GCGGGTCCTTGGGTTCTAACCTGTTGCCT (site GCTGGTCCTAG)” to “GCGTCACCTTGGGTTCTAACCTGTTGCCT (site ACGTCACCTAG)”, the “recombinant barcode read abundance (log10)” value falls from 0.532 to 0.0445.

Going from “GCGTCACCTTGGGTTCTAACCTGTTGCCT (site CCGTCACCTAG)” to “GCGTCACCTTGGGTTCTAACCTGTTGCCT (site GCGTCACCTAG)”, the “recombinant barcode read abundance (log10)” value rises from 0.0376 to 0.394.

Going from “GCGTCACCTTGGGTTCTAACCTGTTGCCT (site TCGTCACCTAG)” to “GCGTGAGCTTGGGTTCTAACCTGTTGCCT (site GCATGAGCTAG)”, the “recombinant barcode read abundance (log10)” value rises from 0.382 to 1.07.

Compared with “GCGTGAGCTTGGGTTCTAACCTGTTGCCT (site GCCTGAGCTAG)”, “GCGTGAGCTTGGGTTCTAACCTGTTGCCT (site GCGTGAGCTAG)” is higher in “recombinant barcode read abundance (log10)” value: 0.151 for the first, 0.676 for the second.

“GCGTGAGCTTGGGTTCTAACCTGTTGCCT (site GCTTGAGCTAG)” and “GCGTGTCCTTGGGTTCTAACCTGTTGCCA (site CCGTGTCCTCG)” are within 0.2 log units of each other in “recombinant barcode read abundance (log10)” value: 0.0594 for the first, 0.0431 for the second.

Going from “GCGTGTCCTTGGGTTCTAACCTGTTGCCA (site GCGTGTCCTTG)” to “GCGTTGCCTTGGGTTCTAACCTGTTGCCT (site GAGTTGCCTAG)”, the “recombinant barcode read abundance (log10)” value falls from 0.335 to 0.073.

For “GCGTTGCCTTGGGTTCTAACCTGTTGCCT (site GCGTTGCCTAG)”, the “recombinant barcode read abundance (log10)” value was 0.213.

— the supplement of paper PMC11208160
